Results on 13 compounds are retold here after PubChem BioAssay (NCI).

Each structure is given as a SMILES string.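 Tested at 5 concentrations; 48 h exposure; 96-well plates; endpoints linearly interpolated, else capped at highest concentration. GI50 marks 50% less growth. TGI is the concentration that stops growth completely.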

Test in all cases: growth of human tumour cells (NCI), 48 h
Assay [1] relates to SNB-19 CNS.
Assay [2] has as its system SK-MEL-2 melanoma.
For assay [3], the system named is SNB-75 CNS.
Assay [4] has as its system A498 renal.
For assay [5], the system named is UACC-62 melanoma.
Assay [6] deals with HCT-15 colon.
The test system of assay [7] is NCI-H522 lung.
The subject of assay [8] is SN12C renal.
The test system of assay [9] is M14 melanoma.
Assay [10] has as its system SR leukemia.

In the case of `O=C(Cc1nc2ccccc2s1)C(=O)Nc1ccc(Cl)cc1`, the TGI in assay [1], in [2], in [3], in [4], in assay [5] and in [6] was more than 100 µM throughout. Moreover, the TGI in assay [7], in assay [8] and in [9] was more than 100 µM throughout.

Take `COc1ccc2[nH]cc(CCNC(C)=O)c2c1`: the TGI in assay [1], in [2], in [3], in [4], in assay [5] and in [6] was more than 100 µM in each case. The TGI in assay [7], in [8] and in [9] was more than 100 µM each time.

`CC(=O)N1CCC2(C=Nc3ccccc32)CC1`: the TGI in [2], in [3], in assay [4], in assay [5], in [6] and in assay [9] was more than 100 µM each time.

Turning to `CC(=O)Nc1ccc(/C=C(\NC(=O)c2ccccc2)c2nc3ccc4c(c3[nH]2)C(=O)c2ccccc2C4=O)cc1`, the TGI is more than 100 µM in assay [1]; more than 100 µM in assay [2]; 61.5 µM in [3]; more than 100 µM in [4]; more than 100 µM in [5]; more than 100 µM in assay [6]. Also, the TGI in assay [7], in assay [8] and in [9] was more than 100 µM in each case.

Turning to `COc1cc(Nc2cnc3cc(C(F)(F)F)ccc3n2)cc(OC)c1OC`, the TGI in assay [1], in [10], in assay [2], in assay [3], in assay [5] and in assay [6] was more than 100 µM throughout. In addition, the TGI in assay [8] is more than 100 µM.

On to `C/C(=N\NC(=S)N1CCCCCC1)c1nccnc1C`, for which the TGI in assay [2] was 50.2 µM; in [3] it was 21.9 µM; in [4], 12.9 µM; in assay [5], 1.3 µM; in assay [6] it was more than 100 µM; in assay [8], more than 100 µM. Further, the TGI in assay [9] worked out at 0.654 µM.

Take `Cn1ccnc1C(=O)/C=C/c1ccc(CC(=O)Nc2ccc(Cl)cc2)cc1`: the GI50 in assay [1] is 1.77 µM; in assay [2] it was more than 25 µM; in [3], 1.9 µM; in assay [4] it was more than 25 µM; in assay [5], 6.5 µM; in [6], 0.999 µM. For the same compound, the figures for the GI50 in assay [7] and in assay [8] were 4.85 µM and 3.04 µM, respectively. Further, the TGI in assay [1], in assay [2], in assay [3], in assay [4], in [5] and in assay [6] was more than 25 µM each time. Also, the TGI in assay [7] and in [8] was more than 25 µM each time.

For the compound `CCCCCCCCCCCCCS(=O)(=O)O`, the TGI in assay [1], in assay [2], in [3], in assay [4], in [5] and in [6] was more than 100 µM in each case. For the same compound, the TGI in assay [7], in assay [8] and in assay [9] was more than 100 µM each time.

Take `Cc1ccc(NC(=O)c2[nH]c(=S)nc(N)c2-c2ccccc2C)cc1C`: the TGI in [1], in assay [2], in assay [3], in assay [4], in assay [5] and in assay [6] was more than 100 µM in each case. Also, the TGI in [7], in assay [8] and in assay [9] was more than 100 µM in each case.

Regarding `CN(C)CCNC(=O)c1ccc(Nc2nc3ccccc3c3occc23)cc1`, the GI50 in assay [1] is 18.8 µM; in [2] it was 9.71 µM; in assay [3], 10.5 µM; in assay [4], 12.3 µM; in assay [5], 1.35 µM; in [6] it was 2.12 µM. Moreover, the GI50 is 13.3 µM in [7], 2.5 µM in assay [8] and 1.7 µM in assay [9]. Also, the TGI was 39 µM in assay [1]; 26.6 µM in assay [2]; 25.5 µM in [3]; 28.1 µM in [4]; 2.71 µM in assay [5]; 4.75 µM in [6]. Further, the TGI in [7] is 29.8 µM; in assay [8] it was 7.87 µM; in [9] it was 3.15 µM.

For `CN(N=O)C(=O)Nc1c[nH]c(=O)[nH]c1=O`, the TGI in assay [1], in assay [2], in assay [3], in assay [4], in assay [5] and in assay [6] was more than 100 µM in each case. For the same compound, the TGI in assay [7], in [8] and in assay [9] was more than 100 µM in each case.

As for `Cc1ccc(C)c(NC(=O)C(=O)C2C(=O)C3=C(CC2(C)C)Nc2ccccc2S3)c1` (centres undefined), the TGI in assay [1], in assay [2], in assay [3], in [5], in assay [6] and in assay [7] was more than 100 µM each time. In addition, the TGI in assay [8] and in [9] was more than 100 µM in each case.

For `COc1ccc(CN2C(=O)/C(=C\c3cc(OC)c(OC)c(OC)c3)c3cc(OC)ccc32)cc1`, the GI50 in [1] is 3 µM; in assay [2], 1.92 µM; in assay [3], 2.17 µM; in [4], 1.5 µM; in assay [5], 1.71 µM; in assay [6], 1.66 µM. Besides, the GI50 in assay [7] was 1.32 µM; in [8] it was 3.53 µM; in assay [9], 1.98 µM. Further, the TGI in assay [1] amounted to 10.7 µM; in assay [2], 4.01 µM; in [3], 6.62 µM; in assay [4] it was 4.39 µM; in [5] it was 4.19 µM; in [6], 3.42 µM. The TGI was 2.8 µM in assay [7], more than 39.4 µM in [8] and 4.32 µM in [9].
